Patent US20240124460A1, “METHODS AND COMPOSITIONS FOR TARGETED PROTEIN DEGRADATION” (Ranok Therapeutics (Hangzhou) Co. Ltd., priority 2020, published 2024)

How the values were obtained:
HSP90α protein = target: T1, HSP90α protein (Homo sapiens, UniProt P07900); test: HSP90α-binding FP (BODIPY) assay; conditions: FP competition with BODIPY-labeled RNK04010
T1 construct: purchased BPS Bioscience #50298
Protocol: Binding of test compounds to HSP90α protein was measured by fluorescent polarization (FP) using the HSP90α (N-terminal) Assay Kit (BPS Bioscience, #50298), following the manufacturer's instructions, except as noted. Fluorescently labeled HSP90-binding compounds, either the provided FITC-geldanamycin (5 nM final concentration) or RNK04010, a triazolone-based HSP90 binding small molecule labeled with BODIPY through a piperazine-phenyl linker (5 nM final concentration) were employed. A 2.5-fold serial dilution of each test compound ranging from 20 μM to 5.2 nM was assayed for binding to HSP90α. After the final step of adding HSP90α protein to each assay well, plates were mixed by brief shaking, incubated at 25° C. for 120 min for FITC-geldanamycin or 300 min for RNK04010, and fluorescence was measured using a PerkinElmer EnVision Plate Reader.

[1] = system: MV-4-11 human acute myeloid leukemia; test: MV-4-11 CCK-8 proliferation assay; assay type: cell-based; conditions: Homo sapiens, MV4-11; MV-4-11 cells, 72 hr
In short: (§1)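 Inhibition is derived from CCK-8 absorbance of compound-treated cells relative to DMSO-treated cells, after subtracting a cell-free medium/DMSO background. Test concentrations span 20 μM down to 1.02 nM in 3-fold steps, and lines are cultured as ATCC recommends.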

[2] = system: U-87 MG human glioblastoma; test: U87 MG CCK-8 proliferation assay; assay type: cell-based; conditions: Homo sapiens, U-87 MG, 72 h, U-87 MG cells, read-out: U87MG CCK-8
In short: as §1

Row | Structure (SMILES) | IC50 (HSP90α protein) [nM] | EC50 [1] [nM] | EC50 [2] [nM]
1 | CCOc1cc(N2CCC(C(=O)NCC3CCN(C(=O)C4CCN(Cc5ccc(-n6c(O)nnc6-c6cc(CC)c(O)cc6O)cc5)CC4)CC3)CC2)ccc1Nc1ncc2c(n1)N(S(C)(=O)=O)c1ccccc1C(=O)N2C [Compound 079, 1-(3-ethoxy-4-((5-methyl-11-(methylsulfonyl)-6-oxo-6,11-dihydro-5H-benzo[e]pyrimido[5,4-b][1,4]diazepin-2-yl)amino)phenyl)-N-((1-(1-(4-(3-(5-ethyl-2,4-dihydroxyphenyl)-5-hydroxy-4H-1,2,4-triazol-4-yl)benzyl)piperidine-4-carbonyl)piperidin-4-yl)methyl)piperidine-4-carboxamide] | < 100 | 100 to 1000 | > 1000
2 | CCOc1cc(N2CCC(C(=O)N3CCC(Cc4ccc(CN(C)Cc5ccc(-n6c(C(=O)NCC(F)(F)F)nnc6-c6cc(C(C)C)c(O)cc6O)cc5)cc4)CC3)CC2)ccc1Nc1ncc2c(n1)N(S(C)(=O)=O)c1ccccc1C(=O)N2C [Compound 076, 5-(2,4-dihydroxy-5-isopropylphenyl)-4-(4-(((4-((1-(1-(3-ethoxy-4-((5-methyl-11-(methylsulfonyl)-6-oxo-6,11-dihydro-5H-benzo[e]pyrimido[5,4-b][1,4]diazepin-2-yl)amino)phenyl)piperidine-4-carbonyl)piperidin-4-yl)methyl)benzyl)(methyl)amino)methyl)phenyl)-N-(2,2,2-trifluoroethyl)-4H-1,2,4-triazole-3-carboxamide] | > 1000 | 100 to 1000 | > 1000
3 | CCCc1cc(-c2nnc(O)n2-c2ccc(CN3CCN(CC4CCN(C(=O)C5CCN(c6ccc(Nc7ncc8c(n7)N(C)c7ccccc7C(=O)N8C)c(OCC)c6)CC5)CC4)CC3)cc2)c(O)cc1O [Compound 020, 2-((4-(4-(4-((4-(4-(3-(2,4-dihydroxy-5-propylphenyl)-5-hydroxy-4H-1,2,4-triazol-4-yl)benzyl)piperazin-1-yl)methyl)piperidine-1-carbonyl)piperidin-1-yl)-2-ethoxyphenyl)amino)-5,11-dimethyl-5,11-dihydro-6H-benzo[e]pyrimido[5,4-b][1,4]diazepin-6-one] | 100 to 1000 | 100 to 1000 | 100 to 1000
4 | CCOc1cc(N2CCC(C(=O)NCC3CCN(C(=O)C4CCN(Cc5ccc(-n6c(O)nnc6-c6cc(C(C)C)c(O)cc6O)cc5)CC4)CC3)CC2)ccc1Nc1ncc2c(n1)N(C)c1ccccc1C(=O)N2C [Compound 041, N-((1-(1-(4-(3-(2,4-dihydroxy-5-isopropylphenyl)-5-hydroxy-4H-1,2,4-triazol-4-yl)benzyl)piperidine-4-carbonyl)piperidin-4-yl)methyl)-1-(4-((5,11-dimethyl-6-oxo-6,11-dihydro-5H-benzo[e]pyrimido[5,4-b][1,4]diazepin-2-yl)amino)-3-ethoxyphenyl)piperidine-4-carboxamide] | < 100 | < 100 | < 100
5 | CCOc1cc(N2CCC(C(=O)N[C@H](C)c3ccc(CN4CCC(Cc5ccc(-n6c(O)nnc6-c6cc(C(C)C)c(O)cc6O)cc5)CC4)cc3)CC2)ccc1Nc1ncc2c(n1)N(S(C)(=O)=O)c1ccccc1C(=O)N2C [Compound 077, (R)—N-(1-(4-((4-(4-(3-(2,4-dihydroxy-5-isopropylphenyl)-5-hydroxy-4H-1,2,4-triazol-4-yl)benzyl)piperidin-1-yl)methyl)phenyl)ethyl)-1-(3-ethoxy-4-((5-methyl-11-(methylsulfonyl)-6-oxo-6,11-dihydro-5H-benzo[e]pyrimido[5,4-b][1,4]diazepin-2-yl)amino)phenyl)piperidine-4-carboxamide] | 100 to 1000 | < 100 | 100 to 1000
6 | CCOc1cc(N2CCC(C(=O)N3CCC(CN4CCN(Cc5ccc(-n6c(O)nnc6-c6cc(CC)c(O)cc6O)cc5F)CC4)CC3)CC2)ccc1Nc1ncc2c(n1)N(S(C)(=O)=O)c1ccccc1C(=O)N2C [Compound 082, 2-((2-ethoxy-4-(4-(4-((4-(4-(3-(5-ethyl-2,4-dihydroxyphenyl)-5-hydroxy-4H-1,2,4-triazol-4-yl)-2-fluorobenzyl)piperazin-1-yl)methyl)piperidine-1-carbonyl)piperidin-1-yl)phenyl)amino)-5-methyl-11-(methylsulfonyl)-5,11-dihydro-6H-benzo[e]pyrimido[5,4-b][1,4]diazepin-6-one] | < 100 | < 100 | < 100
7 | CCOc1cc(N2CCC(C(=O)NCCOCCOCCNC(=O)O[C@H]3CC[C@H](Nc4cc(-n5nc(C(F)(F)F)c6c5CC(C)(C)CC6=O)ccc4C(N)=O)CC3)CC2)ccc1Nc1ncc2c(n1)N(C)c1ccccc1C(=O)N2C [Compound 120, (1R,4R)-4-((2-carbamoyl-5-(6,6-dimethyl-4-oxo-3-(trifluoromethyl)-4,5,6,7-tetrahydro-1H-indazol-1-yl)phenyl)amino)cyclohexyl (2-(2-(2-(1-(4-((5,11-dimethyl-6-oxo-6,11-dihydro-5H-benzo[e]pyrimido[5,4-b][1,4]diazepin-2-yl)amino)-3-ethoxyphenyl)piperidine-4-carboxamido)ethoxy)ethoxy)ethyl)carbamate] | > 1000 | 100 to 1000 | > 1000
8 | CCOc1cc(N2CCC(C(=O)N3CCN(Cc4ccc(-n5c(O)nnc5-c5cc(C(C)C)c(O)cc5O)cc4)[C@@H](C)C3)CC2)ccc1Nc1ncc2c(n1)N(C)c1ccccc1C(=O)N2C [Compound 055, (S)-2-((4-(4-(4-(4-(3-(2,4-dihydroxy-5-isopropylphenyl)-5-hydroxy-4H-1,2,4-triazol-4-yl)benzyl)-3-methylpiperazine-1-carbonyl)piperidin-1-yl)-2-ethoxyphenyl)amino)-5,11-dimethyl-5,11-dihydro-6H-benzo[e]pyrimido[5,4-b][1,4]diazepin-6-one] | 100 to 1000 | < 100 | 100 to 1000
9 | CCOc1cc(N2CCC(C(=O)N3CCC(CN4CCN(Cc5ccc(-n6c(C(=O)NCC(F)(F)F)nnc6-c6cc(C)c(O)cc6O)cc5)CC4)CC3)CC2)ccc1Nc1ncc2c(n1)N(S(C)(=O)=O)c1ccccc1C(=O)N2C [Compound 081, 5-(2,4-dihydroxy-5-methylphenyl)-4-(4-((4-((1-(1-(3-ethoxy-4-((5-methyl-11-(methylsulfonyl)-6-oxo-6,11-dihydro-5H-benzo[e]pyrimido[5,4-b][1,4]diazepin-2-yl)amino)phenyl)piperidine-4-carbonyl)piperidin-4-yl)methyl)piperazin-1-yl)methyl)phenyl)-N-(2,2,2-trifluoroethyl)-4H-1,2,4-triazole-3-carboxamide] | < 100 | < 100 | 100 to 1000
10 | CCOc1cc(N2CCC(C(=O)NCCOCCOCCNC(=O)O[C@H]3CC[C@H](Nc4cc(-n5nc(C(F)(F)F)c6c5CC(C)(C)CC6=O)ccc4C(N)=O)CC3)CC2)ccc1Nc1ncc2c(n1)N(S(C)(=O)=O)c1ccccc1C(=O)N2C [Compound 116, (1R,4R)-4-((2-carbamoyl-5-(6,6-dimethyl-4-oxo-3-(trifluoromethyl)-4,5,6,7-tetrahydro-1H-indazol-1-yl)phenyl)amino)cyclohexyl (2-(2-(2-(1-(3-ethoxy-4-((5-methyl-11-(methylsulfonyl)-6-oxo-6,11-dihydro-5H-benzo[e]pyrimido[5,4-b][1,4]diazepin-2-yl)amino)phenyl)piperidine-4-carboxamido)ethoxy)ethoxy)ethyl)carbamate] | > 1000 | 100 to 1000 | > 1000
11 | CCOc1cc(N2CCC(C(=O)NCc3ccc(-n4c(O)nnc4-c4cc(CC)c(O)cc4O)cc3F)CC2)ccc1Nc1ncc2c(n1)N(S(C)(=O)=O)c1ccccc1C(=O)N2C [Compound 088, 1-(3-ethoxy-4-((5-methyl-11-(methylsulfonyl)-6-oxo-6,11-dihydro-5H-benzo[e]pyrimido[5,4-b][1,4]diazepin-2-yl)amino)phenyl)-N-(4-(3-(5-ethyl-2,4-dihydroxyphenyl)-5-hydroxy-4H-1,2,4-triazol-4-yl)-2-fluorobenzyl)piperidine-4-carboxamide] | 100 to 1000 | 100 to 1000 | > 1000
12 | CCCc1cc(-c2nnc(C(=O)NCCN3CCCCC3)n2-c2ccc(CN3CCN(CC4CCN(C(=O)C5CCN(c6ccc(Nc7ncc8c(n7)N(S(C)(=O)=O)c7ccccc7C(=O)N8C)c(OCC)c6)CC5)CC4)CC3)cc2)c(O)cc1O [Compound 093, 5-(2,4-dihydroxy-5-propylphenyl)-4-(4-((4-((1-(1-(3-ethoxy-4-((5-methyl-11-(methylsulfonyl)-6-oxo-6,11-dihydro-5H-benzo[e]pyrimido[5,4-b][1,4]diazepin-2-yl)amino)phenyl)piperidine-4-carbonyl)piperidin-4-yl)methyl)piperazin-1-yl)methyl)phenyl)-N-(2-(piperidin-1-yl)ethyl)-4H-1,2,4-triazole-3-carboxamide] | < 100 | 100 to 1000 | > 1000
